From US6890920B2, “Quaternary ammonium compounds” (Pharmacia & Upjohn Company, priority 1992, dated 2005)
Like-named read-outs stand apart in the source and are kept apart here.

Tests used:
muscarinic receptor M1 = molecular target: T1, muscarinic receptor M1 (Homo sapiens, UniProt P11229); assay: Muscarinic receptor subtype M1 binding assay, radioligand displacement
T1 construct: expressed in transfected cells
T1 sequence (P11229 1-460): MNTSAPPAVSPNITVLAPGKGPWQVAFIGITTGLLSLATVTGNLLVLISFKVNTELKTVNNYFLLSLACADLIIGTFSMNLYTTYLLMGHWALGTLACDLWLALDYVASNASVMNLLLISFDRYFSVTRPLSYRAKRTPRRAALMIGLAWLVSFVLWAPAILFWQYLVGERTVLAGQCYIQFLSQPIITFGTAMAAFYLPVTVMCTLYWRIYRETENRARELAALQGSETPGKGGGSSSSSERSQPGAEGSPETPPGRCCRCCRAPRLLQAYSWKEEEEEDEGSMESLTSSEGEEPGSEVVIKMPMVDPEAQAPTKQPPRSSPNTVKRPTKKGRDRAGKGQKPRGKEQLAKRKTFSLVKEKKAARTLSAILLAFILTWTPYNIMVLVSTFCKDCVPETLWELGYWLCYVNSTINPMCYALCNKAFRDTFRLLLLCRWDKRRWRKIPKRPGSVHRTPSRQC
Procedure: (§1) Muscarinic receptor subtype M1-M5 binding assays were carried out. Briefly, [3]H-methylscopolamine was allowed to bind to membranes from various recombinant mammalian cell lines, each with an over-expression of a particular receptor subtype.
(§2) Muscarinic receptor subtype M1-M5 binding assays were performed.

muscarinic receptor M2 = molecular target: T2, muscarinic receptor M2 (Homo sapiens, UniProt P08172); assay: Muscarinic receptor subtype M2 binding assay, radioligand displacement; conditions: [3]H-methylscopolamine displacement, membranes from recombinant mammalian cell lines
T2 construct: expressed in transfected cells
T2 sequence (P08172 1-466): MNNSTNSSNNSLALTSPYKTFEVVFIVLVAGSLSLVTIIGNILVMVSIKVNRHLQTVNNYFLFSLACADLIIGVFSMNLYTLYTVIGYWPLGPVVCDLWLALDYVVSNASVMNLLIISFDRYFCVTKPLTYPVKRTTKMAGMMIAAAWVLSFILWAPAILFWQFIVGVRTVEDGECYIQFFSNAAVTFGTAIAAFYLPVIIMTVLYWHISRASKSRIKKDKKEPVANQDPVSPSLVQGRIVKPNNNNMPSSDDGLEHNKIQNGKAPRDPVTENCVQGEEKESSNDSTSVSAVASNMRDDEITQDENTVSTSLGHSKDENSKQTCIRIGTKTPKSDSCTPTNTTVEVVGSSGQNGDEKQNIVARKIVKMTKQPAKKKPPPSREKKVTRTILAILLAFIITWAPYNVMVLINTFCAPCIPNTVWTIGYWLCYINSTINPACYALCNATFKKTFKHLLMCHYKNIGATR
Procedure: as §1, §2

muscarinic receptor M3 = molecular target: T3, muscarinic receptor M3 (Homo sapiens, UniProt P20309); assay: Muscarinic receptor subtype M3 binding assay, radioligand displacement; conditions: [3]H-methylscopolamine displacement, membranes from recombinant mammalian cell lines; read-out: Ki values, receptor subtype M3
T3 construct: expressed in transfected cells
Procedure: as §1, §2

muscarinic receptor M4 = molecular target: T4, muscarinic receptor M4 (Homo sapiens, UniProt P08173); assay: Muscarinic receptor subtype M4 binding assay, radioligand displacement; conditions: [3]H-methylscopolamine displacement, membranes from recombinant mammalian cell lines
T4 construct: expressed in transfected cells
T4 sequence (P08173 1-479): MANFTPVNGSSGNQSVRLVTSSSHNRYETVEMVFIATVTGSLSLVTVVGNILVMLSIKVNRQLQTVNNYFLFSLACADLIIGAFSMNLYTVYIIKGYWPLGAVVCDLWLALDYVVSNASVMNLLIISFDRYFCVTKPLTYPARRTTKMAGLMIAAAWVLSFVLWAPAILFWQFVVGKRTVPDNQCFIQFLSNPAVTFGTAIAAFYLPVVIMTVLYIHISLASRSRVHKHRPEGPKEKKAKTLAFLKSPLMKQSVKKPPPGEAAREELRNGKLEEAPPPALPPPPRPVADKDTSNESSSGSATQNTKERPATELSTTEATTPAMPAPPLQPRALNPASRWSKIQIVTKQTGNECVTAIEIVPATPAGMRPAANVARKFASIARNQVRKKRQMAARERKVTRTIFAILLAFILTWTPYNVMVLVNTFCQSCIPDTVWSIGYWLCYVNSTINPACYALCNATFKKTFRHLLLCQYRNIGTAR
Procedure: as §1, §2

muscarinic receptor M5 = molecular target: T5, muscarinic receptor M5 (Homo sapiens, UniProt P08912); assay: Muscarinic receptor subtype M5 binding assay, radioligand displacement; conditions: [3]H-methylscopolamine displacement, membranes from recombinant mammalian cell lines; read-out: Ki values, receptor subtype M5
T5 construct: expressed in transfected cells
T5 sequence (P08912 1-532): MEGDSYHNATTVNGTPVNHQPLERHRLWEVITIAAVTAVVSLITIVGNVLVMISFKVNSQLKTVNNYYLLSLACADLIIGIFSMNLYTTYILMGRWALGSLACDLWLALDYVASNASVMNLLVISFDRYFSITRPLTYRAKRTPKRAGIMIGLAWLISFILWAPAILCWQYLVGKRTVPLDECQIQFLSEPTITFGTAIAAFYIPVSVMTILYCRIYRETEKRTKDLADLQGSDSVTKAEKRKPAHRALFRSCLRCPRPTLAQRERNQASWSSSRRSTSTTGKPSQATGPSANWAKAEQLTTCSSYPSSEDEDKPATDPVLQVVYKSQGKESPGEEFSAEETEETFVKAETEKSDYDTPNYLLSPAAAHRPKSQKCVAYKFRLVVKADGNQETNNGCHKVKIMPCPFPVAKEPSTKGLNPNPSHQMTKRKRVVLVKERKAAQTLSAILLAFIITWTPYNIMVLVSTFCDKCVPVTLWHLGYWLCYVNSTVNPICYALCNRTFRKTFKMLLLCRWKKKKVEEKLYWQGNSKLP
Procedure: as §1, §2

[1] = system: methacholine-induced bronchoconstriction in Balb/c mice; assay: Bronchodilatory effect of inhaled compounds, Example VIII (% inhibition); format: in vivo; conditions: inhalation of 1 mg/mL FBE; for % inhibition of bronchoconstriction after 10 min: 10 min after dosing; for % inhibition of bronchoconstriction after 36 h: 36 h after dosing
From the text: Bronchoconstriction was induced in BALB/c mice by administration of methacholine.

[2] = Pharmacokinetics of inhaled tolterodine, plasma levels; format: in vivo, Balb/c mice; conditions: FIG. 7
Procedure: Blood samples were collected at 2.5 minutes, 15 minutes, 30 minutes, 1 hour or 2 hours after aerosol drug treatment. Blood samples were prepared as in example VI. Samples were analyzed using a PE SCIEX API 3000 mass spectrometer. Chromatographically, the analyte and the internal standard were resolved on a Zorbax ACE Phenyl column using a gradient elution. The limit of quantitation was 100 pg/mL.

[3] = [3]H-methylscopolamine displacement, membranes from recombinant mammalian cell lines

T3 sequence (P20309 whole entry): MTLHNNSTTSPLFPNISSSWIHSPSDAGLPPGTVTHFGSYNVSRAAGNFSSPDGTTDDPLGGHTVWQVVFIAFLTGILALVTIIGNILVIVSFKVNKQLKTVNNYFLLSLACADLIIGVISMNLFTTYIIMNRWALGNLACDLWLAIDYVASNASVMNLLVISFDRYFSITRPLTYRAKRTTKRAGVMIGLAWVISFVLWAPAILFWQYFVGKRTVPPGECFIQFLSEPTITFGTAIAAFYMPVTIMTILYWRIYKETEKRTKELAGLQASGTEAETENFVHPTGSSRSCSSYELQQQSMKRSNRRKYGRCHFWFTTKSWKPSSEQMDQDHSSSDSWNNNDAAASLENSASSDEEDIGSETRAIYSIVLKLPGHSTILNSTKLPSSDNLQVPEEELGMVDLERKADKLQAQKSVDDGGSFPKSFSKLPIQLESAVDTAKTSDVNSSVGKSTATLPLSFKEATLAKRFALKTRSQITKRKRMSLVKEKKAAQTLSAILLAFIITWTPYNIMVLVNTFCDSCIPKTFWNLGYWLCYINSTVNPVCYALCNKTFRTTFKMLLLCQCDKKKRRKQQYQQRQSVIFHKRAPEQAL

Ki (muscarinic receptor M1; [3]) [nM]	Ki (muscarinic receptor M2) [nM]	Ki (muscarinic receptor M3) [nM]	Ki (muscarinic receptor M4) [nM]	Ki (muscarinic receptor M5) [nM]	melting point	SMILES	% inhibition of bronchoconstriction after 10 min [1] [%]	% inhibition of bronchoconstriction after 36 h [1] [%]	% inhibition of bronchoconstriction after 24 h ([1]; 24 h after dosing) [%]	% inhibition of bronchoconstriction after 48 h ([1]; 48 h after dosing) [%]	Ki (muscarinic receptor M1) [nM]	Plasma levels ([2]; inhalation of nebulized solution at 0.1 mg/ml, limit of quantitation 100 pg/mL)	absorption into the circulation ([2]; inhalation of nebulized solutions at 0.1, 0.5 or 1.0 mg/ml)
1.5	0.33	1.4	1.4	0.48	–	CC(C)N(CC[C@H](c1ccccc1)c1cc(CO)ccc1O)C(C)C [Hydroxytolterodine, 2-[(1R)-3-(diisopropylamino)-1-phenylpropyl]-4-(hydroxymethyl)phenol, reference compound]	–	–	–	–	–	–	–
0.86	1.08	0.92	1.07	0.68	–	CC(C)[N+](C)(CC[C@H](c1ccccc1)c1cc(CO)ccc1O)C(C)C.[I-] [Example 8, (3R)-3-[2-Hydroxy-5-(hydroxymethyl)phenyl]-N,N-diisopropyl-N-methyl-3-phenylpropan-1-aminium iodide]	82	–	60	15	–	–	–
–	–	–	–	–	175 °C (dec.)	CCCC(=O)Oc1ccc(C)cc1[C@H](CC[N+](C)(C(C)C)C(C)C)c1ccccc1.[I-] [Example 21, (3R)-3-[2-(Butyryloxy)-5-methylphenyl]-N,N-diisopropyl-N-methyl-3-phenylpropan-1-aminium iodide]	–	–	–	–	–	–	–
–	–	–	–	–	211 °C (dec.)	COc1ccc(C)cc1[C@H](CC[N+](C)(C(C)C)C(C)C)c1ccccc1.[I-] [Example 20, (3R)-N,N-diisopropyl-3-(2-methoxy-5-methylphenyl)-N-methyl-3-phenylpropan-1-aminium iodide]	–	–	–	–	–	–	–

The remaining lines, values behind:

SMILES	Ki (muscarinic receptor M1; [3]) [nM]	Ki (muscarinic receptor M2) [nM]	Ki (muscarinic receptor M3) [nM]	Ki (muscarinic receptor M4) [nM]	Ki (muscarinic receptor M5) [nM]	melting point	% inhibition of bronchoconstriction after 10 min [1] [%]	% inhibition of bronchoconstriction after 36 h [1] [%]	% inhibition of bronchoconstriction after 24 h ([1]; 24 h after dosing) [%]	% inhibition of bronchoconstriction after 48 h ([1]; 48 h after dosing) [%]	Ki (muscarinic receptor M1) [nM]	Plasma levels ([2]; inhalation of nebulized solution at 0.1 mg/ml, limit of quantitation 100 pg/mL)	absorption into the circulation ([2]; inhalation of nebulized solutions at 0.1, 0.5 or 1.0 mg/ml)
Cc1ccc(O)c([C@H](CC[N+](C)(C(C)C)C(C)C)c2ccccc2)c1.[Br-] [Example 3]	0.3	0.52	0.43	0.72	0.26	189 to 191 °C (dec.)	100	93	–	–	–	–	–
Cc1ccc(O)c(C(CC[N+]2(C)CCCC2)c2ccccc2)c1.[I-] (centres unmarked) [Example 31, 1-[3-(2-Hydroxy-5-Methylphenyl)-3-phenylpropyl]-1-methylpyrrolidinium iodide]	1.2	2.2	3.3	4.2	1.6	–	100	0	–	–	–	–	–
CC[N+]1(CCC(c2ccccc2)c2cc(C)ccc2O)CCCC1.[I-] (centres unmarked) [Example 32, 1-Ethyl-1-(3-(2-hydroxy-5-methylphenyl)-3-phenylpropyl]pyrrolidinium iodide]	1.1	1.7	3.1	3.8	1.2	–	100	17	–	–	–	–	–
Cc1ccc(O)c(C(CC[N+]2(C)CCCCC2)c2ccccc2)c1.[I-] (centres unmarked) [Example 33, 1-[3-(2-Hydroxy-5-methylphenyl)-3-phenylpropyl]-1-methylpiperidinium iodide]	1.1	1.7	3.2	3.6	0.9	–	100	0	–	–	–	–	–
Cc1ccc(O)c([C@H](CCN(C(C)C)C(C)C)c2ccccc2)c1 [Tolterodine, 2-[(1R)-3-(diisopropylamino)-1-phenylpropyl]-4-methylphenol, reference compound]	–	–	–	1.5	0.55	–	–	–	–	–	0.87	at or below detection limits	rapidly absorbed into the circulation
Cc1ccc(O)c(C(CC[N+]2(C)CCCCCC2)c2ccccc2)c1.[I-] (centres unmarked) [Example 34, 1-[3-(2-Hydroxy-5-methylphenyl)-3-phenylpropyl]-1-methylazepanium iodide]	1	1	4.7	2.9	1.8	–	100	0	–	–	–	–	–
